Measured values published in patent US10421770B2, “Pharmaceutical composition of carboplatin based co-crystals and use thereof” (SYN-NAT PRODUCTS ENTERPRISE LLC, priority 2015, dated 2019).
Like-named read-outs stand apart in the source and are kept apart here.

What was measured:
LNCaP cells = assay: cell viability (MTS) assay, LNCaP prostate cancer cells; assay type: cell-based; settings: Homo sapiens, drugs 0.01 to 300 μM, OD490, read-out: IC50 to reduce LNCaP cell number
Method: (§1) The index of cell growth repression ratio was obtained by comparing the OD490 data of treatment group to the negative control. The drug response rate IC50 was calculated with the SPSS 16.0 system. Cell culture: Prostate cancer cell lines LNCaP and PC-3 were purchased from ATCC (Manassas, Va.). The fetal hepatocytes HL-7002 and human embryonic kidney cells […] were purchased from ATCC. The cells were cultured in RPMI+5% Fetal Bovine Serum (FBS). […] The cells treated with the solvents were used as the negative control, and cisplatin and docetaxel were used as the positive controls. The cells were monitored daily, and the cell viability was evaluated with the Promega CellTiter 96 AQueous One Solution Cell Proliferation Assay (Promega, Madison, Wis., USA) according to the manufacture manuals. The cell viability was monitored at OD490 reading in a bio-spectrometer (Perkin Elmer, Walthan, Mass., USA). Data analysis: The OD490 reading data were collected hourly from 1 h to 4 h after the addition of lysis buffer. The index of cell growth repression ratio was obtained by comparing the OD490 data of treatment to the negative control. The drug response rate IC50 was calculated with the SPSS 16.0.

HEK293 cells = assay: cell viability (MTS) assay, embryonic kidney cell line HEK293; assay type: cell-based, human; settings: HEK293 immortalized fetal kidney cells, 0.01 to 300 μM, OD490, read-out: IC50 to reduce HEK293 cells
Method: HEK293 cells are an immortalized human fetal kidney cell line. […] The index of cell growth repression ratio was obtained by comparing the OD490 data of treatment group to the negative control. The drug response rate IC50 was calculated with the SPSS 16.0 system.
(§2) Cell culture: Prostate cancer cell lines LNCaP and PC-3 were purchased from ATCC (Manassas, Va.). The fetal hepatocytes HL-7002 and human embryonic kidney cells […] were purchased from ATCC. The cells were cultured in RPMI+5% Fetal Bovine Serum (FBS).
(§3) The cells treated with the solvents were used as the negative control, and cisplatin and docetaxel were used as the positive controls. The cells were monitored daily, and the cell viability was evaluated with the Promega CellTiter 96 AQueous One Solution Cell Proliferation Assay (Promega, Madison, Wis., USA) according to the manufacture manuals. The cell viability was monitored at OD490 reading in a bio-spectrometer (Perkin Elmer, Walthan, Mass., USA).
(§4) Data analysis: The OD490 reading data were collected hourly from 1 h to 4 h after the addition of lysis buffer. The index of cell growth repression ratio was obtained by comparing the OD490 data of treatment to the negative control. The drug response rate IC50 was calculated with the SPSS 16.0.
(§5) The index of cell growth repression ratio was obtained by comparing the OD490 data of treatment group to the negative control. The drug response rate IC50 was calculated with the SPSS 16.0 system.
(§6) Cell culture: Colorectal cancer cell lines HCT-116 and HT29 were purchased from ATCC (Manassas, Va.). The fetal hepatocytes HL-7002 and human embryonic kidney cells […] were purchased from ATCC. The cells were cultured in RPMI+5% Fetal Bovine Serum (FBS).

PC-3 cells = assay: cell viability (MTS) assay, PC-3 prostate cancer cells; assay type: cell-based; settings: Homo sapiens, drugs 0.01 to 300 μM, OD490, read-out: IC50 to reduce PC-3 cell number
Method: as §1, with “Cell culture: Prostate cancer cell lines LNCaP and PC-3 were purchased from ATCC (Manassas, Va.).” left out

HT29 cells = assay: cell viability (MTS) assay, HT29 colorectal cancer cells; assay type: cell-based; settings: OD490, read-out: IC50 to reduce HT29 cell number
Method: HT29 cells are a colorectal cancer cell line. […] The index of cell growth repression ratio was obtained by comparing the OD490 data of treatment group to the negative control. The drug response rate IC50 was calculated with the SPSS 16.0 system.
as §6, §3, §4

HL-7002 cells = assay: cell viability (MTS) assay, fetal hepatocytes HL-7002; assay type: cell-based, human; settings: HL-7002 immortalized fetal hepatic cells, 0.01 to 300 μM, OD490, read-out: IC50 to reduce HL-7002 cell number
Method: as §5, §2, §3, §4
The index of cell growth repression ratio was obtained by comparing the OD490 data of treatment group to the negative control. The drug response rate IC50 was calculated with the SPSS 16.0 system. […]

HCT-116 cells = assay: cell viability (MTS) assay, HCT-116 colorectal cancer cells; assay type: cell-based; settings: drugs 0.01 to 300 μM, OD490, read-out: IC50 to reduce HCT-116 cell number
Method: HCT-116 cells are a colorectal cancer cell line. […] The index of cell growth repression ratio was obtained by comparing the OD490 data of treatment group to the negative control. The drug response rate IC50 was calculated with the SPSS 16.0 system.
as §6, §3, §4

**Q.** What does the source list for `CC(=O)O[C@@]12CO[C@@H]1C[C@H](O)[C@@]1(C)C(=O)[C@H](O)C3=C(C)[C@@H](OC(=O)[C@H](O)[C@@H](NC(=O)OC(C)(C)C)c4ccccc4)C[C@@](O)([C@@H](OC(=O)c4ccccc4)[C@H]21)C3(C)C` [docetaxel]?
**A.** IC50 (LNCaP cells): 4.03 µM; IC50 (HEK293 cells; Homo sapiens): 1.74 µM; IC50 (PC-3 cells): 49.9 µM

**Q.** How did the IC50 (HT29 cells; Homo sapiens, HT-29, drugs 0.01 to 300 μM) turn out when `O=c1[nH]cc(F)c(=O)[nH]1` [5-FU, fluorouracil] was run?
**A.** The IC50 was 7.56 µM.

**Q.** And the IC50 (HEK293 cells; Homo sapiens)?
**A.** The IC50 was 3.74 µM.

**Q.** What about the IC50 (HL-7002 cells; Homo sapiens, Hepatocyte) of the same compound?
**A.** The IC50 was 4.42 µM.

**Q.** And the IC50 (HCT-116 cells; Homo sapiens)?
**A.** Its IC50 is 4.21 µM.

**Q.** `O=C1[O][Pt]2([NH][C@@H]3CCCC[C@H]3[NH]2)[O]C1=O` [oxaliplatin] was tested. Which IC50 (HT29 cells; drugs 0.01 to 300 μM) did it give?
**A.** The IC50 was 30 µM.

**Q.** What about the IC50 (HEK293 cells) of the same compound?
**A.** The IC50 was 10.1 µM.

**Q.** And the IC50 (HL-7002 cells)?
**A.** The IC50 was 2.44 µM.

**Q.** What about the IC50 (HCT-116 cells) of the same compound?
**A.** The IC50 was 8.15 µM.
